Patent US9320723B2, “Methods of treating thyroid eye disease” (University of Rochester, priority 2010, dated 2016)
Like-named read-outs stand apart in the source and are kept apart here.

Legend:
[1] = tested on: human orbital fibroblasts; assay: HA ELISA of culture medium of orbital fibroblasts treated with prostaglandins or drugs; type: cell-based; settings: for basal HA levels: 100 nM antagonist alone, compared with untreated; for PGD2- and PGJ2-induced HA production: 100 nM antagonist pretreatment 1 hour, PGD2 5 μM or PGJ2 2 μM; for HA levels after selective DP agonist: compared to untreated fibroblasts
Description: Orbital fibroblasts: Primary orbital fibroblasts were isolated from TED patients undergoing orbital decompression surgery. The protocols for orbital biopsy and blood sample, described below, were approved by the Internal Review Board and informed, written consent was obtained from all patients. […] Fibroblasts were characterized by their adherent morphology, expression of vimentin and types I and III collagen and absence of CD45, factor VIII or cytokeratin. Fibroblasts were used at the earliest passage possible (between passages 4 to 10). Human T cells: Lymphocytes were isolated from 60 ml of peripheral blood obtained during orbital decompression surgery. Whole blood was separated over a Ficoll-Paque Plus Gradient (Amersham Biosciences, Piscataway, N.J.) to obtain peripheral blood mononuclear cells. T cells were enriched using CD3/CD28 T cell Expander beads (Invitogen). […] After that, 50 U/ml of recombinant interleukin-2 (rIL-2) was added to the culture and incubated for another 2-3 days. On day 5, cells were diluted to a concentration of 0.5×10^6 cells/ml in medium containing 50 U/ml rIL-2 and incubated for an additional 3-7 days. Cellular purity was assessed using an anti-CD3-PE antibody (BD Biosciences, San Jose, Calif.) and analyzed on a FACSCalibur flow cytometer (BD Biosciences).
Aliquots of culture medium were removed at indicated time points, centrifuged (5 min, 8,000×g at 4° C.) and HA levels quantified by enzyme-linked immunosorbent assay (ELISA) according to the manufacturer's protocol (R&D Systems). Briefly, samples were incubated in HA-binding protein (HABP)-coated microwells, allowing HA in samples to react with the immobilized HABP. After the removal of unbound molecules by washing, biotinylated-HABP was added to the microwells. Following a second wash, streptavidin-conjugated to horseradish peroxidase was added. After the last wash, the chromogenic substrate was added and HA levels were determined using a Varioskan Flash plate reader (Thermo Fisher Scientific, Milford, Mass.).

[2] = tested on: primary orbital fibroblasts; assay: 15d-PGJ2 on TGF-β1 induced HA and HAS mRNA; type: cell-based, human; settings: 15d-PGJ2 0.5, 1.0 or 2.0 μM
Description: Primary orbital fibroblasts were isolated from Graves' disease patients undergoing orbital decompression surgery. The cells were grown in RPMI 1640 media containing 10% FBS, and incubated for 24 hours either with or without 2 ng/ml TGF-β1, and 0.5 μM, 1.0 μM, or 2.0 μM 15d-PGJ2. The amount of HA in the cell culture supernatant and pericellular extraction was measured by ELISA as in the preceding Examples. […] While TGF-β normally induces both HAST and HAS2 mRNA expression, TGF-β induced HA secretion was inhibited by 15d-PGJ2 (FIG. 18).

[3] = tested on: human orbital fibroblasts; assay: Quantitation of secreted, pericellular and intracellular HA by ELISA, TGF-β1 treatment; type: cell-based; settings: for cell number after treatment: cells counted in the FIG. 10 experiment; for inhibition at 10 µM: Homo sapiens, Fibroblast, 2 ng/ml TGF-β1, 24 hours
Description: Confluent monolayers of orbital fibroblasts were serum starved in 0.5% FBS RPMI-1640 medium for three days and pretreated with different concentrations of Pio or Rosi for 1 hour and then treated with or without 2 ng/ml TGF-β1 for 24 hours. After treatments, an aliquot of culture medium (secreted HA) was removed and centrifuged at 8,000×g at 4° C. for 5 minutes and the supernatant was saved for later analysis. The cells were washed twice with PBS and treated with 0.25% trypsin-EDTA solution (GIBCO, Invitrogen) at 37° C. for 5 minutes, the reaction was stopped by addition of culture medium and cell number was determined using a hemocytometer. The cells were then centrifuged and the supernatant was collected and incubated at 100° C. for 10 minutes to inactivate trypsin activity. This supernatant was saved for pericellular HA detection. The cell pellet was washed with PBS once and digested with 120 μg/ml proteinase K in 0.1% SDS/0.1 M Tris-HCl (pH 7.6) at 37° C. for 1 hour, and proteinase K was inactivated by incubation at 100° C. for 10 min. The cell lysate was centrifuged and supernatant analyzed for intracellular HA.
The amount of HA in each extract (secreted HA, pericellular HA and intracellular HA) was measured by ELISA based on the specific interaction of HA with HA binding protein (HABP). The HA detection kit was purchased from R&D system (Minneapolis, Minn.). Briefly, diluted samples were incubated in HABP-coated microwells, allowing HA present in samples to react with the immobilized HABP. After extensive washing, biotinylated HABP was added to the microwells to form complexes with bound HA. Following another round of washing, streptavidin conjugated horseradish peroxidase was added. After a brief incubation period and washing, chromogenic substrate was added and HA levels were determined using a Varioskan Flash plate reader (Thermo Fisher Scientific, Milford, Mass.). A fraction of the samples were pretreated with Streptomyces hyaluronidase (2 U/ml at 37° C. for 2 hour) before subjected to the ELISA assay as a negative control. Furthermore, an additional 50 ng/ml (final concentration) of free soluble HA was added to a fraction of the cell lysate samples to confirm that there are no inhibitory factors present and that the assays show the expected additivity when a known amount of exogenous HA is included.

[4] = tested on: human orbital fibroblasts; settings: previously reported (Feldon et al. 2006); cited from earlier work
[5] = tested on: human orbital fibroblasts; assay: Cell viability assay (XTT); type: cell-based; settings: 24 hours, with or without TGF-β1
Description: Cell viability was assayed using the colorimetric XTT (2,3-bis-(2-methoxy-4-nitro-5-sulfophenyl)-2H-tetrazolium-5-carboxanilide) assay kit (Roche, Germany). Briefly, orbital fibroblasts were seeded in a 96-well plate and cultured with various treatments. Twenty hours after treatment, 50 μl of XTT labeling mixture was added and cells were incubated at 37° C. for 4 hours. The amount of cleaved XTT product generated by metabolically active cells was assayed by measuring absorbance using an ELISA plate reader at 480 nm with a reference wavelength at 650 nm. Cell viability results were also confirmed by Trypan blue staining.

[6] = tested on: human orbital fibroblasts; assay: qRT-PCR of HAS mRNA after PGD2 or BW245C; type: cell-based; settings: BW245C 10 μM
Description: RNA was isolated from orbital fibroblasts or T cells using an RNeasy Mini kit (Qiagen). RNA was reverse transcribed to cDNA using iScript cDNA synthesis kit (Bio-Rad) and diluted 5-fold in RNase-free H2O. Forward and reverse primers for each gene are shown in Table I. RT-PCR: The PCR reaction was performed using Qiagen Fast Cycling PCR kit for 30 cycles in a Bio-Rad thermal cycler. The PCR product was visualized on a 5% acrylamide gel stained with ethidium bromide. Amplifications without reverse transcriptase were carried out as negative controls. qRT-PCR: qRT-PCR was performed in a Bio-Rad iCycler containing B-R SYBR Green SuperMix for IQ (Quanta Biosciences, Gaithersburg, Md.). Efficiency of the amplification was determined to be >90%.
Amplification of 7S ribosomal RNA was carried out for each cDNA (in triplicate) for normalization. Threshold cycle number (Ct) of amplification in each sample was determined by Bio-Rad software and the relative mRNA abundance was calculated as the Ct for amplification of a gene-specific cDNA minus average Ct for 7S, expressed as a power of 2; i.e., 2^ΔCt.

orbital fibroblasts = assay: Measurement of intracellular cAMP (TR-FRET immunoassay); type: cell-based, human; settings: PGD2 5 μM, BW245C 10 μM, up to 60 minutes
Description: cAMP levels were quantified using a time-resolved fluorescence resonance energy transfer (TR-FRET) immunoassay from Perkin Elmer (Waltham, Mass.) according to the manufacturer's protocol. Briefly, orbital fibroblasts were detached with a non-enzymatic cell dissociation solution (Versene, Invitrogen) and re-suspended in Stimulation Buffer (pH 7.4; 1×HBSS buffer containing 5 mmol/L HEPES buffer and 0.01%-0.1% BSA) containing 0.5 mM IBMX and labeled with the Alexa Fluor® 647-labeled anti-cAMP antibody. Finally, the cells were incubated with drugs at the indicated times. Following addition of the detection buffer, the amount of cAMP signal was measured.

[7] = tested on: human orbital fibroblasts; assay: qRT-PCR of HAS mRNA after TGF-β1 with or without Pio or Rosi; type: cell-based; settings: 10 μM, 6 hours
Description: RNA was isolated from orbital fibroblast strains using the RNeasy Mini kit according to the manufacturer's protocol (Qiagen, Valencia, Calif.) and reverse transcripted to cDNA using iScript cDNA synthesis kit (Bio-Rad, Hercules, Calif.). Primers for human HAS1, 2, 3 and 7S as well as qRT-PCR method to detect relative abundance of mRNA are identified supra. Primers for human PPARγ1 (NM138711) and PPARγ 2 (NM015869) mRNA were 5′-AAAGAAGCCGA-CACTAAACC-3′ (SEQ ID NO:3) (sense), 5′-CTTCCATTACGG-AGAGATCC-3′ (SEQ ID NO:4) (antisense) and, 5′-GCGATTC-CTTCACTGATAC-3′ (SEQ ID NO:5) (sense), 5′-CTTCCATT-ACGGAGAGATCC-3′ (SEQ ID NO:6) (antisense), respectively.

HMC-1 cells = assay: Measurement of PGD2 produced by mast cells (PGD2-MOX EIA); type: cell-based, human; settings: 10 μM A23187, 30 minutes, compared to untreated
Description: HMC-1 cells (1×10^6/well) were seeded into 6-well plates and cultured in IMDM medium with 5% FBS in the absence or presence of HQL-79 (H-PGDS inhibitor, 100 μM) at 37° C. for 60 minutes. The cells were then washed and resuspended in RPMI 1640 medium with 0.5% FBS. After 2 hours incubation, the cells were stimulated with 10 μM calcium ionophore A23187 for 30 minutes. The culture media were collected and PGD2 in the supernatants was quantified by PGD2-MOX EIA kits (Cayman Chemical).

Q: Which “basal HA levels” value [1] does the source give for `CS(=O)(=O)c1cc(F)cc2c3c(n(Cc4ccc(Cl)cc4)c12)[C@@H](CC(=O)O)CC3` [MK-0524] here?
A: neither MK-0524 (MK) nor Ramatroban (RAM) influenced basal HA levels

Q: And the “PGD2- and PGJ2-induced HA production” value ([1]; 18 hours)?
A: completely blocked the ability of both PGD2 and PGJ2 to induce HA production

Q: For `CCCCC/C=C/C=C1/C(=O)C=C[C@@H]1C/C=C\CCCC(=O)O` [15d-PGJ2, 15-deoxy-Δ12,14-Prostaglandin J2], which “TGF-β induced HAS2 mRNA expression” value ([2]; 2 ng/ml TGF-β1) is on record?
A: inhibited TGF-β induced HAS2 mRNA expression

Q: And the “TGF-β induced HAST mRNA expression” value ([2]; 2 ng/ml TGF-β1)?
A: enhanced TGF-β induced HAST mRNA expression

Q: What about the “TGF-β induced HA secretion” value ([2]; 2 ng/ml TGF-β1, 24 hours) of the same compound?
A: inhibited

Q: Which “effect of GW9662 on inhibition of TGF-β1 induced HA synthesis by Pio or Rosi” value ([3]; 1 μM GW9662 pretreatment 1 hour, 10 μM Pio or Rosi, 24 hours) does the source give for `O=C(Nc1ccccc1)c1cc([N+](=O)[O-])ccc1Cl` [GW9662] here?
A: did not significantly reduce the ability of either Pio or Rosi to inhibit TGF-β1 induced HA synthesis

Q: What about the PPARγ ligand-driven adipogenesis [4] of the same compound?
A: completely inhibited

Q: For `CN(CCOc1ccc(CC2SC(=O)NC2=O)cc1)c1ccccn1` (stereo not drawn) [Rosi, rosiglitazone], which “cell number after treatment” value [3] is on record?
A: No significant changes in cell number

Q: What about the “cell viability (XTT)” value [5] of the same compound?
A: no significant difference in cell viability among treatment conditions

Q: What does the source list for `O=C(O)CCCCCCC1C(=O)NC(=O)N1CCC(O)C1CCCCC1` (stereo not drawn) [BW245C]?
A: HA levels after selective DP agonist [1]: dose-dependently increased HA levels; HAS3 mRNA increase ([6]; 6 hours): 4.8±0.06; HAS1 mRNA fold increase ([6]; two hours, compared to vehicle): 329±128 fold; HAS2 mRNA fold increase ([6]; two hours, compared to vehicle): 17±0.14 fold; intracellular cAMP production (orbital fibroblasts): significantly increased intracellular cAMP production within 15 to 30 minutes

Q: Which “basal HA levels” value [1] does the source give for `O=C(O)CCn1c2c(c3ccccc31)C[C@H](NS(=O)(=O)c1ccc(F)cc1)CC2` [Ramatroban] here?
A: neither MK-0524 (MK) nor Ramatroban (RAM) influenced basal HA levels

Q: And the “PGD2- and PGJ2-induced HA production” value ([1]; 18 hours)?
A: unable to prevent the induction of HA by PGD2 or PGJ2

Q: With `CCCCC[C@H](O)/C=C/[C@H]1C(=O)C=C[C@@H]1C/C=C\CCCC(=O)O` [PGJ2] as the compound, how does the “concentration yielding the largest induction of HA” value ([1]; 18 hours, strains OF1 and OF2) read?
A: 2 µM

Q: And the “HA synthesis (HA ELISA)” value ([1]; increasing concentrations, 18 hours, strains OF1 and OF2)?
A: significantly increased HA synthesis by both fibroblast strains in a dose-dependant manner

Q: And the “adipogenesis in human orbital fibroblasts” value [4]?
A: induce adipogenesis

Q: For `CCCCCC(=O)CCC1C(=O)CC(O)C1C/C=C\CCCC(=O)O` (stereo not drawn) [DK-PGD2, 13,14-dihydro-15-keto-PGD2], which “HA levels after selective DP agonist” value [1] is on record?
A: did not significantly increase HA levels

Q: For `CCc1ccc(CCOc2ccc(CC3SC(=O)NC3=O)cc2)nc1` (stereo not drawn) [Pio, pioglitazone], which inhibition at 10 µM ([3]; read-out: inhibition of TGF-β1 mediated pericellular accumulation of HA) is on record?
A: 40 ± 2.2%

Q: What about the inhibition at 10 µM ([3]; read-out: inhibition of TGF-β1 mediated secretion of HA) of the same compound?
A: 52 ± 2.2%

Q: And the “cell number after treatment” value [3]?
A: No significant changes in cell number

Q: What about the “inhibition of TGF-β1 mediated HAS1 mRNA induction” value [7] of the same compound?
A: about 50%

Q: And the “inhibition of TGF-β1 mediated HAS2 mRNA induction” value [7]?
A: about 50%

Q: And the “cell viability (XTT)” value [5]?
A: no significant difference in cell viability among treatment conditions

Q: For `CNc1ccc2oc(C[C@H]3O[C@@]4(CC[C@H]3C)O[C@H]([C@H](C)C(=O)c3ccc[nH]3)[C@H](C)C[C@H]4C)nc2c1C(=O)O` [A23187], which “PGD2 production on activation” value (HMC-1 cells) is on record?
A: significantly increased PGD2 production
